Tests used:
Format in all cases: physicochemical
[1] = Specific surface area of the powder, multipoint BET method
Method: A specific surface area of a powder of the compound A obtained by the above-described methods and the following Examples can be measured by known method, for example, multipoint BET method.
A specific surface area of the compound A was adjusted to give the crystalline powders with different specific surface area by the following method. As well, the measurement of specific surface area was performed by multipoint BET method.

[2] = Measurement of bulk density
Method: A bulk density of a powder of the compound A is preferably in the range of about 0.05 to about 0.3 g/cm^3, and more preferably in the range of about 0.05 to about 0.2 g/cm^3. A bulk density can be measured by known method. It includes, for example, the method that about 3 g sample is precisely weighed, it is put into dried 50 mL graduated cylinder (scale: by 0.1 mL) without consolidation, it reads to minimum unit of scale and value that the weight (g) of particulate is divided by the volume (cm^3) of particulate is assumed bulk density (g/cm^3), and method described in the following Examples and so on.
About 3 g of compound A is precisely weighed, it is put into dried 50 mL graduated cylinder (scale: by 0.1 mL) without consolidation, it reads to minimum unit of scale. The value that the weight (g) of particulate is divided by the volume (cm^3) of particulate is assumed bulk density (g/cm^3). As a result, the bulk density of the powder of compound A prepared in Adjustment Example 4(3) was 0.18 g/cm^3 (non-crushing composition) and […] (crushing composition). The bulk density of compound A prepared in Adjustment Example 4(4) was 0.18 g/cm^3 (non-crushing composition) and 0.08 g/cm^3 (crushing composition).

[3] = Measurement of tap density; conditions: tapped 3 minutes at 60 times/minute
Method: A tap density of a powder of the compound A is preferably in the range of about 0.1 to about 0.4 g/cm^3, and more preferably in the range of about 0.1 to about 0.3 g/cm^3. A tap density can be measured by known method. It includes, for example, the method that about 3 g sample is precisely weighed, it is put into dried 50 mL graduated cylinder (scale: by 0.1 mL) without consolidation, the graduated cylinder is set on tapping machine for tap density, then it is tapped for 3 minutes at 60 times/minute, final tap density is found, and value that the weight (g) of particulate is divided by final tap density (cm^3) of particulate is assumed tap density (g/cm^3), and method described in the following Examples and so on.
About 3 g of the powder of compound A is precisely weighed, it is put into dried 50 mL graduated cylinder (scale: by 0.1 mL) without consolidation, the graduated cylinder is set on tapping machine for tap density, then it is tapped for 3 minutes at 60 times/minute, final tap density is found. The value that the weight (g) of particulate is divided by final bulk density (cm^3) of particulate is assumed tap density (g/cm^3). As a result, the tap density of the powder of compound A prepared in Adjustment Example 4(3) was 0.28 g/cm^3 (non-crushing composition) and 0.13 g/cm^3 (crushing composition). The tap density of tie powder of compound A prepared in Adjustment Example 4(4) was 0.23 g/cm^3 (non-crushing composition) and 0.16 g/cm^3 (crushing composition).[

[4] = Accelerated test (storage stability: purity by HPLC, degree of moisture by Karl Fisher); conditions: for Degree of moisture (%) / Purity (%): crushing composition
Method: 1 g of the powder of compound A was poured into the two-lay plastic bag and closed firmly with banding band. This was poured into miniature fiber dram and then this was preserved in the stability tester under the condition for 6 months, at 40° C., at 75% relative humidity. And then, the purity (quantitative value) and the degree of moisture (%) of the powder of compound A were measured. The measurement of the degree of moisture was performed by known method: the moisture vaporization method/Karl Fisher electrometrical titration method. The measurement of purity was performed by high performance liquid chromatography (HPLC).
About 0.04 mg/mL N,N-dimethylformamide/acetontirile (3/7) solution of reference material and measurement sample of compound A was prepared. In this case, the concentration of the solutions was precisely found. These solutions was set under the below test condition and the purity of measurement sample was calculated from the obtained area value of the peak.
• The detector: ultraviolet absorptiometer (measurement wavelength: 278 nm), • The column: YMC-Pack ODS-A-302 (inside diameter 4.6 mm, length 15 cm), • The mobile phase: acetonitrile/5 mmol/L sodium acetate buffer (It was prepared to pH 4.5 using acetate.)/2-propanol mixture (5/4/1), • The flow: The retention time of the compound A was prepared to be about 12 minutes (about 1.0 mL/min), • The column temperature: the constant temperature in the vicinity of 40° C. • The injection volume: 20 μL.

[5] = 6 months at 40°C, 75% relative humidity
[6] = over 6 months at 40°C, 75% relative humidity

Compound: Cc1ccc(-c2nc(CCOc3cccc4c3CCC=C4CCC(=O)O)c(C)o2)cc1 [Adjustment Example 4(4), 3-(5-{2-[5-methyl-2-(4-methylphenyl)-1,3-oxazol-4-yl]ethoxy}-3,4-dihydronaphthalen-1-yl)propanoic acid]
- specific surface area ([1]; crushing composition (jet mill crushed)): 13.4 m^2/g
- specific surface area ([1]; non-crushing composition): 11.2 m^2/g
- bulk density ([2]; crushing composition): 0.08 g/mL
- bulk density ([2]; non-crushing composition): 0.18 g/mL
- tap density ([3]; crushing composition): 0.16 g/mL
- tap density ([3]; non-crushing composition): 0.23 g/mL
- Degree of moisture (%) ([4]; 0 month): 0.1%
- Purity (%) ([4]; 0 month): 98.5%
- long-term storage stability [4, 5]: stable in long-term storage
- Degree of moisture (%) [4, 5]: 0.1%
- Purity (%) [4, 5]: 98.2%
- change (increase) of degree of moisture [4, 6]: no change
- decrease of purity [4, 6]: 0.3%

Source: patent US20080026067A1, “Method for Increasing Specific Surface Area of Slightly Soluble Drug” (priority 2004, published 2008)
